One data set addresses T1, Aldehyde oxidase 1 (Oryctolagus cuniculus, UniProt P80456).
T1 sequence (P80456 whole entry): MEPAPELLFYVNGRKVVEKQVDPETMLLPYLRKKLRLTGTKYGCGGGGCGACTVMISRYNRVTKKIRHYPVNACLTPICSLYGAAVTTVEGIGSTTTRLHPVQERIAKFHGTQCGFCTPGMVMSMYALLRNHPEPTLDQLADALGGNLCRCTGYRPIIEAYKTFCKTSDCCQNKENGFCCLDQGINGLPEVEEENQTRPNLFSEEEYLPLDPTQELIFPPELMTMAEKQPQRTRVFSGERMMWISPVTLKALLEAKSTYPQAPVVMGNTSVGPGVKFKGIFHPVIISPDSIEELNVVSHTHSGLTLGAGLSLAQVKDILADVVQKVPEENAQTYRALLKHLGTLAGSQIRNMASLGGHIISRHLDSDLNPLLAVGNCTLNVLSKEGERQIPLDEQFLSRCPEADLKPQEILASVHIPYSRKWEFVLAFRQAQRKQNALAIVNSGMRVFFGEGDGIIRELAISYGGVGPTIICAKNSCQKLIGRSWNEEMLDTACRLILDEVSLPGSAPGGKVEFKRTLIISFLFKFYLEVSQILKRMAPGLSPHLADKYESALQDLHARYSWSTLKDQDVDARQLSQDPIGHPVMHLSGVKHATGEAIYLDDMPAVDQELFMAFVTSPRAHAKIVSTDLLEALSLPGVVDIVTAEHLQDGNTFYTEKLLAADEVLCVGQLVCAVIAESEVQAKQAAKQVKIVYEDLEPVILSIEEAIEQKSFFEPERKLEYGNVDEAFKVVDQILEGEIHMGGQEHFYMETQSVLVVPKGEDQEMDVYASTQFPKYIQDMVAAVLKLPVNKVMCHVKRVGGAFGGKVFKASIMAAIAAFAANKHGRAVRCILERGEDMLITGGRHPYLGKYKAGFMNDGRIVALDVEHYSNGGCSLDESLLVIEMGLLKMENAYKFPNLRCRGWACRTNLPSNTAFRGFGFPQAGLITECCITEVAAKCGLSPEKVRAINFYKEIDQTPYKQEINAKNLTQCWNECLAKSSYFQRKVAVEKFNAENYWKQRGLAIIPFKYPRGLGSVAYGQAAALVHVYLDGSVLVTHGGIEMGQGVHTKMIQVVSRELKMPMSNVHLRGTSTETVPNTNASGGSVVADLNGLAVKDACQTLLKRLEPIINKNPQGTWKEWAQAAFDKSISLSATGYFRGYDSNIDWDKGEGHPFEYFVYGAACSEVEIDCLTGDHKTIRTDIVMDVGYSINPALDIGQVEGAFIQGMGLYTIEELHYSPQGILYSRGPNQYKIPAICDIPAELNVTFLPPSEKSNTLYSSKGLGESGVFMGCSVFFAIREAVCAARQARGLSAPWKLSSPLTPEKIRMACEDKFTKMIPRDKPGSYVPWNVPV
It is filed as ADME, tissue-based, Liver, Cytosol.

In the next data set the target is T2, Catalase (Bos taurus, UniProt P00432).
T2 sequence (P00432 whole entry): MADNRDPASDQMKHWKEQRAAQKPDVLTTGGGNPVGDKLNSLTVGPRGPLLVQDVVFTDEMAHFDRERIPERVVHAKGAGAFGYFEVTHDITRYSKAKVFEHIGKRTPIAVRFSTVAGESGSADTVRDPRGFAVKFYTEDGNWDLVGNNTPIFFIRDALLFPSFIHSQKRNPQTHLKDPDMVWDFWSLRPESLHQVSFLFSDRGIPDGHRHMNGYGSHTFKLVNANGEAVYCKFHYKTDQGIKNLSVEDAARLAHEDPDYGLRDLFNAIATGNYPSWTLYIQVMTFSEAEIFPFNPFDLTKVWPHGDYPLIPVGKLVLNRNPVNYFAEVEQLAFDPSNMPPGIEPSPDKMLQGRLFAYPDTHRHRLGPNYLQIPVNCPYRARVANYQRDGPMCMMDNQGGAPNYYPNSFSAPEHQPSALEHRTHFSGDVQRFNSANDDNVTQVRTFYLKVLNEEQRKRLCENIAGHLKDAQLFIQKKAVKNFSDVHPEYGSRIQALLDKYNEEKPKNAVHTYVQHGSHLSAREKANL
Format: ADME, tissue-based, Liver.

Another data set addresses T3, Tyrosinase (Agaricus bisporus, UniProt O42713).
T3 sequence (O42713 whole entry): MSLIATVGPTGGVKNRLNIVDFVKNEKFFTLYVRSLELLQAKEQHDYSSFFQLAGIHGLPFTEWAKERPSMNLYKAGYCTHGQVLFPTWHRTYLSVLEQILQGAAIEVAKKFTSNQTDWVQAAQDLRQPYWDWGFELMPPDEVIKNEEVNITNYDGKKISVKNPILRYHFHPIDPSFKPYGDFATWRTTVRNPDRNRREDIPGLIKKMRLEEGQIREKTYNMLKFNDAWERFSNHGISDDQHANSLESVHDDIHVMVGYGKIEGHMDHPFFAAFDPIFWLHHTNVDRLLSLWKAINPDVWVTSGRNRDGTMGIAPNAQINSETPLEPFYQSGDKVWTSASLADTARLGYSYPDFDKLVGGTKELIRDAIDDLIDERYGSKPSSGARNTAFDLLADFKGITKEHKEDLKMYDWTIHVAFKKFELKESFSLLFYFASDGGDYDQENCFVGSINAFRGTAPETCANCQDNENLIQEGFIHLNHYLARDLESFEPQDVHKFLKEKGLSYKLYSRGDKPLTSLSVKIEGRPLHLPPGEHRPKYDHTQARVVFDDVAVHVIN
The settings on record: for pIC50: read-out: IC50.

The test system of another data set is Spinacia oleracea. As to the kind of experiment: Phytotoxicity against Spinacia oleracea (spinach) seedlings assessed as lesions at 100 ppm after 9 days. Format: organism-based. The conditions noted are these: in vivo, 216 h.

For 26 molecules, IC50 and Activity results are on record in ChEMBL document CHEMBL3045711, “Neonicotinoid insecticides: oxidative stress in planta and metallo-oxidase inhibition” (J Agric Food Chem, 2011).

Structures are written as SMILES. pIC50: −log10 of the molar value.

Description for Aldehyde oxidase 1: Inhibition of Oryctolagus cuniculus (rabbit) AOX in liver cytosol
Description for Catalase: Inhibition of Bos taurus (bovine) CAT in liver
Description for Tyrosinase: Inhibition of Agaricus bisporus (mushroom) tyrosinase

Consider `O=C(O)c1cnc(Cl)s1`, for which the pIC50 at Aldehyde oxidase 1, against Catalase and at Tyrosinase was less than 3.00 in each case.

With `O=Cc1ccccc1` [BENZALDEHYDE], the pIC50 – broadly, the IC50 on a negative log10 scale, so that one unit is a factor of ten – against Aldehyde oxidase 1 is 3.18.

As for `O=Cc1ccc(O)cc1` [4-HYDROXYBENZALDEHYDE], the pIC50 against Aldehyde oxidase 1 was 3.24; on Tyrosinase it was 3.11.

Take `CN/C(=N/CC1CCOC1)N[N+](=O)[O-]` (stereo not drawn) [DINOTEFURAN]: the pIC50 against Aldehyde oxidase 1 and on Tyrosinase was less than 3.00 in each case.

As to `O=Cc1ccc(Cl)nc1` [6-CHLORONICOTINALDEHYDE], the pIC50 on Aldehyde oxidase 1 is 3.14; at Tyrosinase, 3.11.

Consider `O=Cc1cncs1` [THIAZOLE-5-CARBALDEHYDE], for which the results for the pIC50 on Aldehyde oxidase 1 and on Tyrosinase were 3.05 and 5.15, respectively.

Turning to `CN/C(=N\[N+](=O)[O-])NCc1cnc(Cl)s1` [CLOTHIANIDINE], the Activity result with Spinacia oleracea is on record as “Toxic”. Besides, the pIC50 at Aldehyde oxidase 1 and at Tyrosinase was less than 3.00 each time.

For the molecule `O=Cc1cccnc1` [NICOTINALDEHYDE], the pIC50 was 3.22 at Aldehyde oxidase 1 and 4.55 on Tyrosinase.

For the molecule `O=C(O)c1ccccc1` [BENZOIC ACID], the pIC50 is less than 3.00 against Aldehyde oxidase 1, less than 3.00 against Catalase and 3.57 at Tyrosinase.

As for `C/C(=N\C#N)N(C)Cc1ccc(Cl)nc1`, in the data set on Spinacia oleracea, the Activity entry is given as “Toxic”. The pIC50 was less than 3.00 against Aldehyde oxidase 1 and 2.76 at Tyrosinase.

`CN1COCN(Cc2cnc(Cl)s2)/C1=N\[N+](=O)[O-]` [THIAMETHOXAM]: the pIC50 on Aldehyde oxidase 1 and on Tyrosinase was less than 3.00 each time.

Regarding `O=CC1CCOC1` (stereo not drawn) [TETRAHYDROFURAN-3-CARBALDEHYDE], the pIC50 against Aldehyde oxidase 1 was 3.44; on Tyrosinase, less than 3.00.

`O=C(O)c1ccc(Cl)cc1O`: the values for the pIC50 on Aldehyde oxidase 1, against Catalase and on Tyrosinase were less than 3.00, less than 3.00 and 3.28, respectively.

For `CCN(Cc1ccc(Cl)nc1)/C(=C/[N+](=O)[O-])NC`, the pIC50 at Aldehyde oxidase 1 and at Tyrosinase was less than 3.00 each time.

For the molecule `O=C(O)c1ccc(Cl)nc1` [6-CHLORONICOTINIC ACID], the pIC50 at Aldehyde oxidase 1, at Catalase and on Tyrosinase was less than 3.00 each time.

With `O=Cc1cccnc1Cl` [2-CHLORONICOTINALDEHYDE], the figures for the pIC50 against Aldehyde oxidase 1 and at Tyrosinase were 3.46 and less than 3.00, respectively.

For the molecule `O=C(O)c1cccnc1S` [2-MERCAPTONICOTINIC ACID], the pIC50 was less than 3.00 against Aldehyde oxidase 1, less than 3.00 at Catalase and 4.10 at Tyrosinase.

For the molecule `O=C(O)c1cccnc1` [NIACIN], the pIC50 at Tyrosinase is less than 3.00.

Regarding `O=C(O)c1ccc(S)nc1` [6-MERCAPTONICOTINIC ACID], the values for the pIC50 on Aldehyde oxidase 1, at Catalase and on Tyrosinase were less than 3.00, less than 3.00 and 4.38, respectively.

For `O=Cc1cnc(Cl)s1`, the values for the pIC50 against Aldehyde oxidase 1 and on Tyrosinase were 3.44 and 4.19, respectively.

On to `O=Cc1ccoc1` [FURAN-3-CARBALDEHYDE], for which the pIC50 was 3.59 against Aldehyde oxidase 1 and 4.82 at Tyrosinase.

For the molecule `O=Cc1ccco1` [FURFURAL], the pIC50 against Aldehyde oxidase 1 was 3.15; at Tyrosinase, 4.37.

Molecule `N=C(N)NN` [PIMAGEDINE] showed a pIC50 against Catalase of 3.30.

Turning to `O=C(c1ccc(OCCN2CCCCC2)cc1)c1c(-c2ccc(O)cc2)sc2cc(O)ccc12` [RALOXIFENE], the pIC50 at Aldehyde oxidase 1 was 2.81. The IC50 entry against Tyrosinase was “ND(Insoluble)”.

`Oc1ncnc2[nH]ncc12` [ALLOPURINOL]: the pIC50 at Aldehyde oxidase 1 and on Tyrosinase was less than 3.00 each time.

`O=C(O)C1CCOC1` (stereo not drawn): the pIC50 at Aldehyde oxidase 1, on Catalase and at Tyrosinase was less than 3.00 throughout.
